From patent publication US20210213104A1, “GLUCAGON AND GLP-1 CO-AGONISTS FOR THE TREATMENT OF CHRONIC KIDNEY DISEASE AND DIABETIC KIDNEY DISEASE IN TYPE 2 DIABETES” (MEDIMMUNE LIMITED, priority 2020, published 2021)
Where “and” joins values, the source holds several entries; their conditions need not be identical. Equal values may be shown once.

Columns and labels:
[1] = Phase 2a: pharmacokinetics in plasma (LC/MS-MS); format: in vivo, human
Procedure: Blood was collected to evaluate to pharmacokinetics (PK) of Cotadutide in plasma. The PK was measured using a validated liquid chromatography-tandem mass spectrometry (LC/MS-MS) method.
Pharmacokinetic characterization of Cotadutide at 300 μg was obtained using full PK profiles collected during the last day of dosing at 300 μg (Day 32). Additional Ctrough concentrations were collected through the study duration to check exposure.

[2] = tested on: subjects with T2DM and renal impairment; assay: Phase 2a: HbA1c blood test; format: in vivo, human; settings: ITT; for HbA1c LS Mean Change / HbA1c Change from Baseline, Mean / HbA1c Difference in LS Mean Change (vs Placebo): Day 1 to Day 32; for HbA1c LS Mean Change: ANCOVA
Procedure: Cotadutide was titrated from 50 μg up to 300 μg and administered once daily by subcutaneous (SC) injection over 32 days.
Cotadutide was administered at 50 μg once daily for 4 days, followed by 100 μg daily for 7 days, 200 μg daily for 7 days, and 300 μg daily for 14 days (n=20). Placebo was administered one daily for 32 days (n=20). Cotadutide and placebo were administered in the morning. Dosing commenced following predose baseline vital signs, blood tests (including HbA1c), an electrocardiogram (ECG), body weight measurement, and bioimpedance spectroscopy (BIS). Subjects then returned for daily dosing or remained overnight locally until Day 5, and thereafter, had visits at weekly intervals until a maintenance dose of 300 μg was established. Thus, Cotadutide or placebo was administered at the study site by study personal for the first four doses and on site on Days 5, 12, 19, and 32. At all other times, subjects preformed dosing at home.
Blood samples were collected to evaluate blood glucose (fasting) and HbA1c levels.

Which results are given for `CCCCCCCCCCCCCCCC(=O)N[C@@H](CCC(=O)NCCCC[C@H](NC(=O)[C@H](CC(=O)O)NC(=O)[C@H](CO)NC(=O)[C@@H](NC(=O)[C@H](Cc1ccccc1)NC(=O)[C@@H](NC(=O)CNC(=O)[C@H](CCC(N)=O)NC(=O)[C@H](CO)NC(=O)[C@@H](N)Cc1c[nH]cn1)[C@@H](C)O)[C@@H](C)O)C(=O)N[C@@H](CO)C(=O)N[C@@H](CCC(=O)O)C(=O)N[C@@H](Cc1ccc(O)cc1)C(=O)N[C@@H](CC(C)C)C(=O)N[C@@H](CC(=O)O)C(=O)N[C@@H](CO)C(=O)N[C@@H](CCC(=O)O)C(=O)N[C@@H](CCCNC(=N)N)C(=O)N[C@@H](C)C(=O)N[C@@H](CCCNC(=N)N)C(=O)N[C@@H](CC(=O)O)C(=O)N[C@@H](Cc1ccccc1)C(=O)N[C@H](C(=O)N[C@@H](C)C(=O)N[C@@H](Cc1c[nH]c2ccccc12)C(=O)N[C@@H](CC(C)C)C(=O)N[C@@H](CCC(=O)O)C(=O)N[C@@H](C)C(=O)NCC(=O)NCC(=O)O)C(C)C)C(=O)O` [Cotadutide]?
AUC ([1]; human, plasma, 300 ug, Day 32, 300 μg SC, geometric mean, N = 16): 286 ng·h/mL; Cmax ([1]; human, plasma, 300 ug, Day 32, 300 μg SC, geometric mean, N = 18): 16.9 ng/mL; Tmax ([1]; human, plasma, 300 ug, Day 32, 300 μg SC, median, N = 18): 5.6 h; PK linearity for Ctrough ([1]; repeat daily SC doses 50 to 300 μg): linear PK; HbA1c LS Mean Change ([2]; Insulin Dose < 20 U/day): −0.66%; HbA1c LS Mean Change ([2]; Insulin Dose ≥ 20 U/day): −0.57%; HbA1c LS Mean Change ([2]; Total): −0.65% and −0.7%; HbA1c LS Mean Change ([2]; Total, listed as MEDI0382): −0.65%; HbA1c Change from Baseline, Mean ([2]; Insulin Dose < 20 U/day): −0.829%; HbA1c Difference in LS Mean Change (vs Placebo) ([2]; Insulin Dose < 20 U/day): −0.59%; HbA1c Difference in LS Mean Change (vs Placebo) ([2]; Insulin Dose ≥ 20 U/day): −0.55%; HbA1c Change from Baseline, Mean ([2]; Total): −0.653%; HbA1c Difference in LS Mean Change (vs Placebo) ([2]; Total): −0.66%; Hemoglobin A1C, Day 32, Mean ([2]; Insulin Dose < 20 U/day): 6.943%; Hemoglobin A1C, Day 32, Median ([2]; Insulin Dose < 20 U/day): 6.900%; Hemoglobin A1C, Day 32, Mean ([2]; Insulin Dose ≥ 20 U/day): 7.392%; Hemoglobin A1C, Day 32, Median ([2]; Insulin Dose ≥ 20 U/day): 7.300%; Hemoglobin A1C, Day 32, Mean ([2]; Total): 7.226%; Hemoglobin A1C, Day 32, Median ([2]; Total): 7.200%
